Drawing on US9045461B2, “Phenyl-heteroaryl derivatives and methods of use thereof” (TransTech Pharma, LLC, priority 2010, dated 2015), this text covers IC50 and EC50 for one compound.

Structures are written as SMILES. Where a name gives a salt, the structure may show the parent alone.

Experiment [1] concerns the target T1, sRAGE binding to β-amyloid (Homo sapiens, UniProt Q15109).
T1 construct: extracellular domain can be isolated by proteolysis of RAGE to generate soluble RAGE (sRAGE) comprised of the V and C domains
The experiment in a line: RAGE binding assay (ELISA), β-amyloid as the RAGE ligand. As to conditions: compounds tested in hydrochloride salt form, concentration at which 50% signal has been inhibited. In short, it runs like this:
(§1)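 Ligand (500 ng/well) coated in carbonate buffer pH 9.8 overnight at 4° C and blocked with 1% BSA; test compound (10-100 μM in water, 4% DMSO co-solvent) incubated with sRAGE (6 nM FAC) 1 h at 37° C. Bound sRAGE detected by anti-sRAGE/biotin-anti-mouse/AP-streptavidin with pNPP, A405. IC50 = 50% signal inhibition.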

In another experiment the target is T2, sRAGE binding to S100b (Homo sapiens, UniProt Q15109).
T2 construct: extracellular domain can be isolated by proteolysis of RAGE to generate soluble RAGE (sRAGE) comprised of the V and C domains
The experiment is described as follows: RAGE binding assay (ELISA), S100b as the RAGE ligand. As to conditions: compounds tested in hydrochloride salt form, concentration at which 50% signal has been inhibited. In short, it runs like this:
as §1

Experiment [2] relates to RAGE signaling in THP-1 cells. The experiment in a line: Functional assay: TNF-alpha secretion by S100b-stimulated THP-1 cells. As to conditions: Homo sapiens; THP-1 cells stimulated with bovine S100b 100 μg/mL; TNF-alpha measured by ELISA 24 hours after stimulation; read-out: EC50 for TNF expression. It is filed as cell-based. The source says:
Previously the literature has cited that THP-1 cells in response to RAGE ligands secrete TNF alpha (Yeh C-H, et al. Diabetes. Vol. 50, June 2001, pp. 1495-1504). The following assay method may be used to identify compounds of Formula (I) or pharmaceutically acceptable salts thereof which are useful as antagonists of RAGE signaling.
The myeloid cell line, THP-1 (ATTC # TIB-202), may be cultured in RPMI-1640 media (ATCC, Cat #30-2001) supplemented with fetal bovine serum to a final concentration of 10% by volume and Penicillin-Streptomycin (Gibco, Cat #0.15140-122). Alternatively, media may be formulated using RPMI 1640 (Bio-Whitaker #12-702F) supplemented with 2 mM L-glutamine (Gibco #12381-018) adjusted to contain 1.5 g/L sodium bicarbonate (Gibco #25080-094), 4.5 g/L glucose, 10 mM HEPES (Cellgro #25-060-L1) and 1.0 mM sodium pyruvate (Gibco #11360-070) and supplemented with 0.05 mM 2-mercaptoethanol, […] fetal bovine serum, 10% per ATCC instructions. During culture, the culture cells are maintained at a density between 5×10^4 and 1×10^6 viable cells/mL. […]
The amount of TNF-alpha secreted by the THP-1 cells was measured 24 hours after the addition of the stimulant proteins to the cell culture using a commercially available ELISA kit (R&D Systems, Minneapolis, Minn. # DY210). […] The plate is read at 450 nm within 30 minutes. […]

T2 sequence (Q15109 23-342 limits assumed): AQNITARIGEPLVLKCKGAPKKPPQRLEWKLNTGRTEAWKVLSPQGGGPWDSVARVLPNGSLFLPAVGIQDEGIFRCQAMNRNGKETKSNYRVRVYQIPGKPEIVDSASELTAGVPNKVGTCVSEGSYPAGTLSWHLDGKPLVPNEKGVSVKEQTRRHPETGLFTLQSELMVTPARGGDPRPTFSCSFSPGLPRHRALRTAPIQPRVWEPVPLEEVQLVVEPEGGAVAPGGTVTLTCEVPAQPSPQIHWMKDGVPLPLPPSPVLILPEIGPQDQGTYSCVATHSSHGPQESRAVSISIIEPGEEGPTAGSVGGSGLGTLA
T1 sequence (Q15109 23-342 limits assumed): as above

As to `CCCCc1nnc(OC2CCN(C)CC2)cc1-c1ccc(OC2CCCCC2)cc1` [Example 14, 3-Butyl-4-(4-cyclohexyloxy-phenyl)-6-(1-methyl-piperidin-4-yloxy)-pyridazine dihydrochloride], the results for the IC50 (in experiment [1]; on sRAGE binding to S100b) were 820 nM and 810 nM, respectively. Besides, the EC50 in experiment [2] is 1260 nM.
